Experimental data reported in US20050256177A1, “Phenyl derivatives for the treatment of abnormal cell growth” (Pfizer Inc, priority 2004, published 2005).

Legend:
[1] = Metabolite profiling after single oral dose of [14C]-labelled parent drug in healthy male subjects; format: in vivo, human; settings: for presence in HPLC-radiochromatogram of human fecal metabolites: human feces; for presence in HPLC-radiochromatogram of human fecal metabolites / presence in HPLC-radiochromatogram of circulating metabolites / presence in HPLC-radiochromatogram of human urinary metabolites: single 100 mg oral dose of labelled compound; for presence in HPLC-radiochromatogram of circulating metabolites: human plasma; for presence in HPLC-radiochromatogram of human urinary metabolites / matrices in which the metabolite was detected (humans): human urine; for matrices in which the metabolite was detected (humans): feces, plasma
Procedure: Four normal healthy male subjects between the ages of 26 and 55 years participated in the study. The subjects entered the Clinical Research Facility 12 hours before dosing, and remained there for up to 384 hours after dosing under continuous medical observation. All subjects had fasted at least 8 hours and were given a single 100 mg oral dose of the labeled compound (˜93 μCi/subject). The dose was administered in an open fashion in the morning. A standard meal was provided 4 hours later. The dosing formulation was prepared by dissolving the radiolabeled material in citrate buffered vehicle that was prepared by adding 100 ml of water to a 4 oz. amber bottle containing a dry powder blend of citric acid and sodium citrate. Total volume of dosage given was 240 ml.
After dosing, urine samples were collected for up to 16 days between the following time points: 0-12, 12-24, 24-48, 48-72, 72-96, 96-120, 120-144, 144-168, 168-192, 192-216, 216-240, 240-264, 264-288, 288-312, 312-336, 336-360 and 360-384 hours post-dose (i.e., first sample collected between 0-12 hours, second sample collected between 12-24 hours, and so on). The total volume of the urine samples was recorded after each collection. Feces were collected as passed, from time of dosing until 384 hours after dosing.
Blood sufficient to provided a minimum of 7 ml of plasma was collected, in heparinized tubes, from each subject at 0 (just before dosing), 1, 2, 4, 6, 8, 10, 12, 16, 24, 48, 72, 96, 120, 144 and 168 hours after the dose. Within 1 hour after collection, the blood samples were centrifuged in a refrigerated centrifuge and plasma was separated from whole blood. Samples collected over the first 168 hours post-dose were divided into two aliquots (3 ml and 4 ml). The 3 ml aliquots were used for the quantitation of unchanged 3-(4-bromo-2,6-difluoro-benzyloxy)-5-[3-(4-pyrrolidin-1-yl-butyl)-ureido]-isothiazole-4-carboxylic acid amide The other 4 ml aliquots were used for the analysis of total radioactivity. For metabolite identification, blood sufficient to yield 20 ml of plasma was collected at 4, 6, 8, 12, 16 and 24 hours after the dose. All samples were labeled, immediately frozen, and stored at −20° C. until analysis.
Radioactivity in urine, feces, and plasma was measured by liquid scintillation counting. All samples were counted in a Wallac 1409 liquid scintillation counter with quench correction determined by monitoring the Compton edge of the external gamma source. Radioactivity less than twice the background value of the pre-dose matrix was considered to be below the limit of quantification.
Urine samples obtained between the following time points were pooled for each subject: 0-12, 12-24, 24-48, 48-72 hours after the dose (i.e., first sample collected between 0-12 hours, second sample collected between 12-24 hours, and so on). The pooled samples (˜100 ml) were lyophilized overnight. The residues were extracted with methanol twice (10 and 5 ml). The supernatants were combined and 0.2 ml aliquots were counted in a liquid scintillation counter to determine the extraction efficiency. The supernatants were evaporated to dryness in a Turbo Vap LV evaporator. The residues were reconstituted with 1 ml of MeOH. Aliquots (50 μl) were injected onto the HPLC column without further purification.
Fecal homogenates were pooled (up to 0-264 hours) for each subject. The pooled samples (˜10 g) were suspended in 25 ml of acetonitrile. The suspensions were sonicated for 10 min, then stirred on a magnetic stirrer for 1 hour and centrifuged. Supernatants were separated and the residues further extracted with 25 ml of acetonitrile. The two supernatants were combined and 1 ml aliquots were counted in a scintillation counter to determine the extraction efficiency. The organic solvents were evaporated to dryness in a Turbo Vap LV evaporator and the residues were reconstituted in 1 ml of MeOH:water (50:50). Aliquots (100 μl) of concentrated fecal extracts were injected onto the HPLC column. […]

[2] = Metabolite detection in beagle dogs, methods similar to those used for human samples; format: in vivo; settings: dog urine, feces, bile, plasma
[3] = Metabolite detection in Sprague-Dawley rats, methods similar to those used for human samples; format: in vivo; settings: rat urine, feces, bile, plasma

| SMILES | presence in HPLC-radiochromatogram of human fecal metabolites [1] | presence in HPLC-radiochromatogram of circulating metabolites [1] | presence in HPLC-radiochromatogram of human urinary metabolites [1] | matrices in which the metabolite was detected (humans) [1] | matrices in which the metabolite was detected (beagle dogs) [2] | matrices in which the metabolite was detected (rats) [3] |
| --- | --- | --- | --- | --- | --- | --- |
| NC(=O)c1c(OCc2c(F)cc(Br)cc2F)nsc1NC(=O)NCCCCN1CCCC1 [3-(4-Bromo-2,6-difluoro-benzyloxy)-5-[3-(4-pyrrolidin-1-yl-butyl)-ureido]-isothiazole-4-carboxylic acid amide, reference compound] | presence | presence | presence |  |  |  |
| NC(=O)c1c(OCc2c(F)cc(Br)cc2F)nsc1NC(=O)NCCCCNCCCC(=O)O [Metabolite M1, 4-(4-{3-[3-(4-bromo-2,6-difluoro-benzyloxy)-4-carbamoyl-isothiazol-5-yl]-ureido}-butylamino)-butyric acid] | presence |  | presence | detected in urine and feces of humans |  |  |
| NC(=O)c1c(OCc2c(F)cc(Br)cc2F)nsc1NC(=O)NCCCC[N+]1([O-])CCCC1 [Metabolite M2, 3-(4-bromo-2,6-difluoro-benzyloxy)-5-[3-(4-pyrrolidin-1-yl-N-oxide-butyl)-ureido]-isothiazole-4-carboxylic acid amide] |  |  | presence | detected in urine of humans | in urine, feces, bile and plasma of Beagle dogs |  |
| O=C(O)c1c(F)cc(Br)cc1F [Metabolite M4, 4-bromo-2,6-difluorobenzoic acid] |  | presence | presence | detected in urine and plasma |  | found in rat urine |
| CC(=O)NC(CSCc1c(F)cc(Br)cc1F)C(=O)O (stereo not shown) [Metabolite M5, 2-Acetylamino-3-(4-bromo-2,6-difluoro-benzylsulfanyl)-propionic acid] |  |  | presence | detected in urine of humans | detected in urine of humans and beagle dogs |  |
| NC(=O)c1c(OCc2c(F)cc(Br)cc2F)nsc1NC(=O)NCCCCN1CC=CC1=O [Metabolite M8, 3-(4-bromo-2,6-difluoro-benzyloxy)-5-{3-[4-(2-oxo-2,5-dihyro-pyrrol-1-yl)-butyl]-ureido}-isothiazole-4-carboxylic acid amide] |  |  |  |  | detected in feces, bile and plasma of beagle dogs | detected in feces, bile and plasma of beagle dogs and Sprague-Dawley Rats |
| NC(=O)c1c(OCc2c(F)cc(Br)cc2F)nsc1NC(=O)NCCCC(=O)O [Metabolite M9, 4-{3-[3-(4-bromo-2,6-difluorobenzyloxy)-4-carbamoyl-isothiazol-5-yl]-ureido}-butyric acid] | presence | presence |  | detected in feces and plasma | found in dog feces |  |
